Reference: US11351134B2, “Small molecule agents, compositions, and formulations, for internal use, displaying inhibitory activity against gram-positive and/or gram-negative organisms” (NATUREZA, INC., priority 2017, dated 2022)

Experiments:
Format in all cases: cell-based
Escherichia coli = test: Broth microdilution (CLSI M07) of active component mixed with water only; details: active component mixed with water only (miscible state); about 0.0009 wt. % to about 8 wt. %
Method: (§1) Initially, to determine basic characteristics, each active component was separately mixed, generally under agitated conditions, with water, and each was miscible with water. Each, after being mixed with water, was tested in a broth microdilution assay, against a variety of bacteria using amounts of the each of the lauric acid derivatives, ranging from about 0.0009 wt. % to about 8 wt. %. The bacteria included Escherichia coli, and Staphylococcus aureus (including MRSA strains). The minimum inhibitory concentration (MIC) needed to prevent growth of the target bacteria was evaluated based on a method published by Clinical Laboratory Standards Institute (CLSI), broth microdilution method M-07 (M07). […] Each of the samples containing one of the lauric acid derivatives was compared with a positive control, decanoic acid.

[1] = test system: Staphylococcus aureus (including MRSA strains); test: as above; details: active component mixed with water only (miscible state); about 0.0009 wt. % to about 8 wt. %
Method: as §1

[2] = test system: representative Gram-positive pathogens and yeast; test: Broth microdilution of lecithin/chitosan compositions, sonicated and/or filtered; details: composition with lecithin and chitosan
Text: In a further preparation, lauric acid derivative, 12-aminododecanoic acid or 12-amino-1-dodecanoic acid methyl ester, was suspended individually (and independently) in an organic solvent, chloroform, and mixed with water, generally under agitated conditions. Here, for each sample, the amount of water to the amount of chloroform was at least 2:1, and was as high as 10:1. This was followed by chloroform evaporation, generally under vacuum using a freeze dryer. After removal of the chloroform, a lecithin solution was added to each sample. The lecithin was in a solution of acetic acid (e.g., 98 mM acetic acid and 2 mM sodium acetate), in which the amount of lecithin in solution was between about 1% to 5%. With addition of lecithin, each sample mixture contained up to about 4.8% lecithin (or generally about 5% or less), and up to about 7.8% of one of the lauric acid derivatives (or generally about 8% or less). pH of the solution was neutral. It is noted that the lecithin should be in a suitable form (e.g., solution or granules) acceptable for internal utilization (e.g., pharmaceutical grade). The lecithin may also include cholesterol, or other lecithin variants as described above, with similar results. Chitosan was then added to each of the samples, and each sample was then independently sonicated, followed by independent sterilization by high pressure filtration. […]

[3] = test system: Gram-positive pathogens and Gram-negative pathogens; test: In vitro inhibitory activity of chitosan- or carrier-containing particles; details: synthesis (with chitosan) at pH 7 with positively charged chitosan
Text: For TABLES 1 to 3, compositions were generally prepared as described above, and as further outlined in this paragraph. For these examples, the active component, as a lauric acid derivative or lauric acid, was suspended in an organic solvent, chloroform, and then mixed with water, under robust agitation. The amount of water to the amount of chloroform was at least about 2:1, and could be as high as 10:1. Chloroform was then evaporated (e.g., under vacuum using a freeze dryer). After removal of the chloroform, a 2.2% lecithin solution in an acetate buffer (e.g., 98 mM acetic acid and 2 mM sodium acetate) was prepared and added, so the final amount of the active component was about 1 part active component mixture and about 9 parts of the 2.2% lecithin solution. Of course, it is noted that other ranges to achieve final amount of the active component as described above (e.g., active component mixture and lecithin solution) may also be utilized. Cholesterol could also be optionally added. The mixture of lecithin and the active component was mixed and sonicated, and then a solution of about 1.5% chitosan was added. Thereafter, the entirety of the mixture containing the lecithin and the active component was further blended, in which a final ratio was about 1 part active component to about 9 parts of the 2.2% lecithin solution to about 10 parts of the 1.5% chitosan solution. The pH was then varied, to a pH of 5, or a pH of 7, or a pH of 9. In some mixtures having a pH of 7, a chemical agent imparting a positive charge to the chitosan was included in a form of glycol chitosan. In these tests, the chemical agent used was glycol. In these examples, the amount of chemical agent, glycol was about one molecule glycol moiety to one molecule chitosan sacharide unit; higher amounts of glycol moieties are also acceptable, while lower amounts of glycol moieties were often found to decrease overall inhibitory activity associated with a composition when formed and tested in vitro. It is noted that negatively charged chitosan containing particles were prepared. […] After mixing, the mixtures could each be filtered through a […] filter. In some tests, the mixtures were sonicated before filtering. Sonication produced small particles. In some studies, particles were freeze dried as a powder (generally, after mixing, sonicating and filtering).
The positive controls were prepared and evaluated in a similar manner. All prepared samples were tested using a broth microdilution test.
This also occurs when the chitosan- or carrier-containing particle includes an active component that has a log P value that is less than 4 and includes a methyl and/or ethyl side chain (e.g., 12-amino-1-dodecanoic acid methyl ester). […]

COC(=O)CCCCCCCCCCCN.Cl [12-amino-1-dodecanoic acid methyl ester HCl]
Inhibitory activity against Gram-negative bacteria (e.g., E. coli) (Escherichia coli): does not, in the miscible state, demonstrate inhibitory activity | Inhibitory activity against Gram-positive bacteria (e.g., S. aureus) [1]: does not, in the miscible state, demonstrate inhibitory activity | Growth inhibitory activity against representative Gram-positive pathogens and yeast [2]: exhibited growth inhibitory activity | Inhibitory activity against both Gram-positive pathogens and Gram-negative pathogens [3]: stronger inhibitory activity as well as broad spectrum activity
